Assay results reported in ChEMBL document CHEMBL1201862, “PubChem BioAssay data set” (2004).
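Five concentrations, 48 hours, 96-well plates. GI50 is the concentration that inhibits growth by half.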 Calls of active or inactive are those of the source. Rule as the data show it: active = GI50 up to about 1.1 µM and inactive = higher.

Assays:
Assay in all cases: NCI anticancer screen, dose series, 48 h
NCI-H460 = system: NCI-H460
UACC-257 = system: UACC-257
Malme-3M = system: Malme-3M
HOP-62 = system: HOP-62
KM12 = system: KM12
OVCAR-3 = system: OVCAR-3
KM-20L2 = system: KM-20L2
COLO 205 = system: COLO 205
M14 = system: M14
ACHN = system: ACHN
A549 = system: A549
DMS-273 = system: DMS-273
HCT-116 = system: HCT-116
SK-MEL-2 = system: SK-MEL-2
RPMI-8226 = system: RPMI-8226
SN12C = system: SN12C
UO-31 = system: UO-31
NCI-H23 = system: NCI-H23
SNB-19 = system: SNB-19
IGROV-1 = system: IGROV-1
M19-MEL = system: M19-MEL
UACC-62 = system: UACC-62
K562 = system: K562
SF-539 = system: SF-539
DMS-114 = system: DMS-114
CCRF-CEM = system: CCRF-CEM
RXF 393 = system: RXF 393
OVCAR-5 = system: OVCAR-5
SF-268 = system: SF-268
NCI-H226 = system: NCI-H226
A498 = system: A498
OVCAR-4 = system: OVCAR-4
HCT-15 = system: HCT-15
SK-MEL-28 = system: SK-MEL-28
HOP-18 = system: HOP-18
SK-OV-3 = system: SK-OV-3
HCC 2998 = system: HCC 2998
SNB-75 = system: SNB-75
SW-620 = system: SW-620
MOLT-4 = system: MOLT-4
HT-29 = system: HT-29
LOX IMVI = system: LOX IMVI
TK-10 = system: TK-10
CAKI-1 = system: CAKI-1
EKVX = system: EKVX
HL-60 = system: HL-60
SNB-78 = system: SNB-78
U-251 = system: U-251
NCI-H522 = system: NCI-H522
786-0 = system: 786-0
LXFL 529 = system: LXFL 529
SK-MEL-5 = system: SK-MEL-5
SF-295 = system: SF-295
HOP-92 = system: HOP-92
OVCAR-8 = system: OVCAR-8

With COc1cc(CNc2cnc3ccc(N)cc3n2)cc(OC)c1OC the GI50 (NCI-H460) was > 100 µM (inactive), the GI50 (UACC-257) was > 100 µM (inactive) and the GI50 (Malme-3M) was > 100 µM (inactive). The GI50 (HOP-62) was > 100 µM (inactive), the GI50 (KM12) was > 100 µM (inactive) and the GI50 (OVCAR-3) was > 100 µM (inactive). For the same compound, the GI50 (KM-20L2) was > 100 µM (inactive), the GI50 (COLO 205) was > 100 µM (inactive) and the GI50 (M14) was > 100 µM (inactive). For the same compound, the GI50 (ACHN) was > 100 µM (inactive), the GI50 (A549) was > 100 µM (inactive) and the GI50 (DMS-273) was 99.8 µM (inactive). For the same compound, the GI50 (HCT-116) was > 100 µM (inactive), the GI50 (SK-MEL-2) was > 100 µM (inactive) and the GI50 (RPMI-8226) was 91.4 µM (inactive). The GI50 (SN12C) was > 100 µM (inactive), the GI50 (UO-31) was > 100 µM (inactive) and the GI50 (NCI-H23) was > 100 µM (inactive). For the same compound, the GI50 (SNB-19) was > 100 µM (inactive), the GI50 (IGROV-1) was > 100 µM (inactive) and the GI50 (M19-MEL) was 66.8 µM (inactive). The GI50 (UACC-62) was > 100 µM (inactive), the GI50 (K562) was 36.3 µM (inactive) and the GI50 (SF-539) was > 100 µM (inactive). For the same compound, the GI50 (DMS-114) was > 100 µM (inactive), the GI50 (CCRF-CEM) was > 100 µM (inactive) and the GI50 (RXF 393) was > 100 µM (inactive). The GI50 (OVCAR-5) was > 100 µM (inactive), the GI50 (SF-268) was > 100 µM (inactive) and the GI50 (NCI-H226) was > 100 µM (inactive). For the same compound, the GI50 (A498) was > 100 µM (inactive), the GI50 (OVCAR-4) was > 100 µM (inactive) and the GI50 (HCT-15) was > 100 µM. For the same compound, the GI50 (SK-MEL-28) was > 100 µM (inactive), the GI50 (HOP-18) was > 100 µM (inactive) and the GI50 (SK-OV-3) was > 100 µM (inactive). For the same compound, the GI50 (HCC 2998) was 72.4 µM (inactive), the GI50 (SNB-75) was > 100 µM (inactive) and the GI50 (SW-620) was 45.1 µM (inactive). For the same compound, the GI50 (MOLT-4) was > 100 µM (inactive), the GI50 (HT-29) was > 100 µM (inactive) and the GI50 (LOX IMVI) was > 100 µM (inactive). The GI50 (TK-10) was > 100 µM (inactive), the GI50 (CAKI-1) was > 100 µM (inactive) and the GI50 (EKVX) was > 100 µM (inactive). For the same compound, the GI50 (HL-60) was 36.3 µM (inactive), the GI50 (SNB-78) was > 100 µM (inactive) and the GI50 (U-251) was > 100 µM (inactive). For the same compound, the GI50 (NCI-H522) was > 100 µM (inactive), the GI50 (786-0) was > 100 µM (inactive) and the GI50 (LXFL 529) was > 100 µM (inactive). The GI50 (SK-MEL-5) was 71.3 µM (inactive), the GI50 (SF-295) was > 100 µM (inactive) and the GI50 (HOP-92) was > 100 µM (inactive). For the same compound, the GI50 (OVCAR-8) was > 100 µM (inactive).
